The values below come from ChEMBL document CHEMBL1201862, “PubChem BioAssay data set” (2004).

Activity calls are given as the source filed them.

Assay [1] can be described thus: luciferase reporter signal suppression in cells – H4 neuroglioma cells, luminescence, dose response (AID 1990). Format: functional, cell-based.
Assay [2] is described as follows: cells. The assay is classed as functional, cell-based.
A short description of assay [3]: Luminescence Cell-Based Dose Response HTS to Identify Inhibitors of 5'UTR Stem-Loop Driven Prion Protein mRNA Translation in H4 Neuroglioblastoma Cells. [Related pubchem assays: 1827 (Project Summary), 1813 (Primary HTS)]. Format: functional.
The next assay addresses Beta-galactosidase (Escherichia coli, UniProt Q8VNN2). Description: PubChem AID 485352. Format: functional.
Assay [4] can be described thus: alpha-synuclein stem-loop luciferase translation blockers – H4 neuroglioma cells, luminescence, confirmation (AID 1988). The assay is classed as functional, cell-based.
For assay [5], the target named is T1, Type-1 angiotensin II receptor (Homo sapiens, UniProt P30556).
T1 sequence (P30556 whole entry): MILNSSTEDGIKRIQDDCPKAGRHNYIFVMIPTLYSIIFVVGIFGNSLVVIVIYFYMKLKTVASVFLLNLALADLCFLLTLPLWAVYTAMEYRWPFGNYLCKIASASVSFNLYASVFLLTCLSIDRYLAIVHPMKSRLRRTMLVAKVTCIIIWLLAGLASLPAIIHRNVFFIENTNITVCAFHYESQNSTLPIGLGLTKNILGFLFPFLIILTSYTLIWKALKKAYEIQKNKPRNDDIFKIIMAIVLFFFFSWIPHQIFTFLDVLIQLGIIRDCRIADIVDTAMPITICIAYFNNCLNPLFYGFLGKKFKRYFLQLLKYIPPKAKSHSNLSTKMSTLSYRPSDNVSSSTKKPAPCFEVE
Description: antagonism of angiotensin II type 1 receptor – cell-based, uHTS hits, selectivity assay for APJ receptor antagonist project, dose response (AID 463214).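 Note: antagonist potency against angiotensin II stimulated AT1 response.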 The assay is classed as functional.

A short description of assay [6]: cells. Format: functional, cell-based. The source holds these as a separate data set.
A further assay addresses Nonstructural protein 1 (Influenza A virus, UniProt Q194T2). Format: functional, Influenza A virus (A/California/07/2009(H1N1)).
The subject of a further assay is INS1. Kind of assay: INS-1E survival protection against cytokine death – cell-based, luminescence, retest, dose response (AID 449756).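 Note: cell death triggered by IL-1 beta plus TNF-alpha plus IFN-gamma mixture; protective hits raise ATP signal compared with cytokine alone wells.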 Format: functional. Conditions: Rattus norvegicus.
Assay [7] addresses Dual specificity tyrosine-phosphorylation-regulated kinase 1A (Rattus norvegicus, UniProt Q63470). Format: biochemical, Homo sapiens.
Assay [8] deals with T2, Endoribonuclease toxin MazF (Escherichia coli K-12, UniProt P0AE70).
T2 sequence (P0AE70 whole entry): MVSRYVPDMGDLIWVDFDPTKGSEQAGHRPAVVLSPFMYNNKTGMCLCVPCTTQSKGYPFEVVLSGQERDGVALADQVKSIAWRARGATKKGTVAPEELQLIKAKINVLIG
Kind of assay: activation of MazEF endoribonuclease cleavage – biochemical, fluorescence, single-stranded RNA substrate, uHTS hits, dose response (AID 588481). The assay is classed as functional.

Assay [9] has as its target T2, Endoribonuclease toxin MazF. Kind of assay: substrate-only fluorescence increase artefacts – biochemical, single-stranded RNase substrate, counter-screen for MazEF activator project, dose response (AID 588502). The assay is classed as functional. In general terms: The purpose of a counterscreen is to sort out artefacts and off-target activity.
Assay [10] has as its system HEK293. Kind of assay: inhibition of NOD1-driven NF-kB reporter – cell-based, luminescence, uHTS, primary screen (AID 1578). Format: functional. Conditions: Homo sapiens.
In assay [11] the test system is Streptococcus sp. 'group A'. Description: Streptococcus pyogenes SK(-)GAS viability under kanamycin – luminescence, BacTiterGlo, confirmation, counter-screen for streptokinase expression inhibitor project, dose response (AID 1900). The assay is classed as functional, organism-based.
Assay [12] deals with HEK293. Description: cells. The assay is classed as functional, cell-based. Conditions: Homo sapiens.
A further assay has as its target T3, Streptokinase A (Streptococcus pyogenes serotype M1, UniProt P10520).
T3 sequence (P10520 whole entry): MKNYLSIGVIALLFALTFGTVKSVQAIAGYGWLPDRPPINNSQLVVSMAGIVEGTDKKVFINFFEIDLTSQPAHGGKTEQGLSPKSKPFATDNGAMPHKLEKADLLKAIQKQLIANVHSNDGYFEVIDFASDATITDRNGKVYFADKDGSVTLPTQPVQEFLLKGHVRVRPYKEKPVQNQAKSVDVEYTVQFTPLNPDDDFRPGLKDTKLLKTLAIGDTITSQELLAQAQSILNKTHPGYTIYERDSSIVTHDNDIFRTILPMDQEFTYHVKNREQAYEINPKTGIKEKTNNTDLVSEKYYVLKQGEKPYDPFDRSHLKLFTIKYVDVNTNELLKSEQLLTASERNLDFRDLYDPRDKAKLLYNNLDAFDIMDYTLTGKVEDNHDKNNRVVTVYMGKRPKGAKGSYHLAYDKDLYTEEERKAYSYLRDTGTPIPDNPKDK
Description: viability-normalized secreted streptokinase activity reduction – plasminogen activation absorbance, OD405, dose response (AID 1914).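 Note: secreted streptokinase activity via plasminogen activation per viability signal from cell pellet.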 The assay is classed as functional, Streptococcus pyogenes M1 GAS.

Assay [13] has as its system HEK293. Description: cells. The assay is classed as functional, cell-based. Conditions: Homo sapiens. This is another data set of the same source.
Assay [14] can be described thus: microbe, parasite or virus in culture. The assay is classed as functional. The conditions noted are these: Mycobacterium tuberculosis.
A further assay concerns Streptococcus. Description: GAS UMAA2166 growth inhibition – luminescence, BacTiterGlo, counter-screen for streptokinase expression inhibitor project, dose response (AID 1915).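 Note: potency for reduction of bacterial viability or growth.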 The assay is classed as functional, organism-based.
The target in a further assay is T4, Bcl-2-related protein A1 (Mus musculus, UniProt Q07440).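 Note: confirmatory dose–response counterscreen on Bfl-1, used to check hits from a UBC13 polyubiquitin inhibitor campaign.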
T4 sequence (Q07440 whole entry): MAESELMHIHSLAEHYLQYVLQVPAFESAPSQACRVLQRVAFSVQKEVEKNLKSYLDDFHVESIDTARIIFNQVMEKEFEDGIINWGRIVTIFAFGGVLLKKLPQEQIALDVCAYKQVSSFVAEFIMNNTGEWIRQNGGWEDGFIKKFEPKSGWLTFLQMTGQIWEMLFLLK
The assay is classed as functional.

For assay [15], the target named is T5, Ubiquitin-conjugating enzyme E2 N (Homo sapiens, UniProt P61088).
T5 sequence (P61088 whole entry): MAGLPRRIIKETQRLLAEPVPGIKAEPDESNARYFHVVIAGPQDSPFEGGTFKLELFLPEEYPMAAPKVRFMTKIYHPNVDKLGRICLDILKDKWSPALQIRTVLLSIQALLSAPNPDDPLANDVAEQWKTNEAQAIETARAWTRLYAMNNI
Format: functional.

Assay [16] deals with T5, Ubiquitin-conjugating enzyme E2 N. The assay is classed as functional. The source holds these as a separate data set.
The subject of assay [17] is HEK293. Description: EBV LMP1 TES2 canonical NF-kB signalling blockers – cell-based, HEK293, luciferase, cherry-pick, dose response (AID 588343). The conditions noted are these: Homo sapiens, HEK293. The assay is classed as functional, Homo sapiens.
For assay [18], the target named is Dual specificity protein kinase CLK1 (Homo sapiens, UniProt P49759). Kind of assay: inhibition of human CLK1 activity – biochemical, cherry-picked samples, selectivity assay for Dyrk1A inhibitor project, dose response (AID 588811).
A short description of assay [19]: reduction of Shn3 3'UTR-driven luciferase in osteoblasts – cell-based, Clone20 osteoblasts, firefly luciferase, cherry-picked, dose response (AID 624132).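 Note: firefly luciferase luminescence from reporter carrying the Shn3 3'UTR in osteoblasts.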 The assay is classed as functional.
Assay [20] is described as follows: loss of viability in HepG2 cells – cell-based, CellTiter-Glo, cherry-picked, cytotoxicity control for Shn3 inhibitor project, dose response (AID 624134). Format: functional. (In general: Cellular ATP, detected with luciferase, serves as a proxy for viable cell number.)
The nature of assay [21]: non-specific 3'UTR reporter inhibition in Clone20-Shn3RL – cell-based, Renilla luciferase, cherry-picked, counter-screen for Shn3 inhibitor project, dose response (AID 624133). Format: functional.
In assay [22] the target is Hepatocyte nuclear factor 4-alpha (Homo sapiens, UniProt P41235). Format: functional, cell-based.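 Note: biochemical luminescence-based dose-response counterscreen measuring inhibition of HNF4 dimerization, run alongside a screen for blockers of ABHD5–perilipin-5 interaction; split luciferase complementation of HNF4 fusion proteins in cell lysate measuring dimerization.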
Assay [23] in a line: viability loss in HeLa cells – cytotoxicity control for MgcRacGAP inhibitor project, dose response (AID 624300). The assay is classed as functional.
The target in assay [24] is T6, Rac GTPase-activating protein 1 (Homo sapiens, UniProt Q9H0H5).
T6 sequence (Q9H0H5 whole entry): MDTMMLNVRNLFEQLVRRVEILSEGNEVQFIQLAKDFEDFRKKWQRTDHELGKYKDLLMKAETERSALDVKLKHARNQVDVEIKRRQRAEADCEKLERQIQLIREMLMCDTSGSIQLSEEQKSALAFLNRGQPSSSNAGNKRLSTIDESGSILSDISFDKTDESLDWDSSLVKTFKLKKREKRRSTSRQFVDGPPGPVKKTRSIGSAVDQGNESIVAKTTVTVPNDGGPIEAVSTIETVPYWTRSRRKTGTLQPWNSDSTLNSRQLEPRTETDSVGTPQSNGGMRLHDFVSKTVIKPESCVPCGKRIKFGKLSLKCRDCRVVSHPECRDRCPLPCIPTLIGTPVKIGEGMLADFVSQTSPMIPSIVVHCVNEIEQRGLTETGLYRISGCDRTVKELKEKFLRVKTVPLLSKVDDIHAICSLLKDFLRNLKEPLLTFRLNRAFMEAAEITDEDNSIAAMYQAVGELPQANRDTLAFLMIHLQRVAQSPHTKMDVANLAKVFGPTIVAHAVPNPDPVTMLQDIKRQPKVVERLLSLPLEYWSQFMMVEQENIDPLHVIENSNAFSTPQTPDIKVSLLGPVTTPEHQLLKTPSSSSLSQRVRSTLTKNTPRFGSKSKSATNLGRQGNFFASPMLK
Kind of assay: blockers of MgcRacGAP-driven Rac1 GTP hydrolysis – biochemical, ADP Hunter fluorescence, primary and confirmatory, confirmation (AID 624330). Format: functional.

Beta-galactosidase, sequence (Q8VNN2 whole entry): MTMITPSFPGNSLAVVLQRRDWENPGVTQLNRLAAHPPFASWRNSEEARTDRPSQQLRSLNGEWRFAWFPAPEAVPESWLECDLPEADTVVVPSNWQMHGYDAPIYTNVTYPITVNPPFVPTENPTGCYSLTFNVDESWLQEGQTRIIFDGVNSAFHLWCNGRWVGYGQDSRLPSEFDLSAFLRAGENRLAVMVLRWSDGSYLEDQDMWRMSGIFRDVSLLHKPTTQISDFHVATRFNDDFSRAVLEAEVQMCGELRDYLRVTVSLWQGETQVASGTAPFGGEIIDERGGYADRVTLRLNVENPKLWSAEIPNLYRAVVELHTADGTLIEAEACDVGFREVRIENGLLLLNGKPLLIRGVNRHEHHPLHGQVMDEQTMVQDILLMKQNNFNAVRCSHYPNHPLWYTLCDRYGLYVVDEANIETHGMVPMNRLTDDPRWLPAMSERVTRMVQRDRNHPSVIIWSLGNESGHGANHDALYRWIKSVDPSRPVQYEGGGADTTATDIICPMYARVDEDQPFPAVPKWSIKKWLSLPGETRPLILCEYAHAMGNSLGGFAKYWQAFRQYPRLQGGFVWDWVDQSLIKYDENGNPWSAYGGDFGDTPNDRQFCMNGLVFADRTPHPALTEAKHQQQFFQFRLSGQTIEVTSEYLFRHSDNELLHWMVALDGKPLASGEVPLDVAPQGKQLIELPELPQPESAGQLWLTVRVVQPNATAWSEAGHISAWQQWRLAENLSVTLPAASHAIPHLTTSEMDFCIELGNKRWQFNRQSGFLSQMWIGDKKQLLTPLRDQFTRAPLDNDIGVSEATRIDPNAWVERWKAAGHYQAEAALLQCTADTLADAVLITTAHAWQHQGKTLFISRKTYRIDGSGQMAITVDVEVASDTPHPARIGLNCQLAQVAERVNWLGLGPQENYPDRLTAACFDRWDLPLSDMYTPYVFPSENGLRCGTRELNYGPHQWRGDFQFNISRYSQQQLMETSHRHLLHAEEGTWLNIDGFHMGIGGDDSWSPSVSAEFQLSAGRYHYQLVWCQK
Nonstructural protein 1, sequence (Q194T2 whole entry): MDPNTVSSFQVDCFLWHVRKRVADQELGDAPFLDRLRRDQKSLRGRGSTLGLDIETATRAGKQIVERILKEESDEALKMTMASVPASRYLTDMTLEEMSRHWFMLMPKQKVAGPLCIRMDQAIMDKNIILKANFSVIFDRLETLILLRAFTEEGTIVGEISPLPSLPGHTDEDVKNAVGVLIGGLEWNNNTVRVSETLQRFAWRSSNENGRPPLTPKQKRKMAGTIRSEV
Hepatocyte nuclear factor 4-alpha, sequence (P41235 whole entry, the tested form may be a part): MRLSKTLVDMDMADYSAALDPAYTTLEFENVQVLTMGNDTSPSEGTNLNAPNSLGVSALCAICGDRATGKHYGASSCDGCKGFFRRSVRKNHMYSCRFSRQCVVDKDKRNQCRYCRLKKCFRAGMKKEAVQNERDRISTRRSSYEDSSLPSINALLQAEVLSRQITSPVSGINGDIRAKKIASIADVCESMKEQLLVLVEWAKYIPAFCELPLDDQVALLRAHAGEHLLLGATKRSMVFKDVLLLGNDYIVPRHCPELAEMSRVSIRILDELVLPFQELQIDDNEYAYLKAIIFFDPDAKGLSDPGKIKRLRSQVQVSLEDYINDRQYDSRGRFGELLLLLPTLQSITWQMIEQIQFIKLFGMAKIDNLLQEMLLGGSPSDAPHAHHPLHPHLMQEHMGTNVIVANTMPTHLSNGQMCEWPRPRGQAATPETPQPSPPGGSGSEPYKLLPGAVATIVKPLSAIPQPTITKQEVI
Dual specificity protein kinase CLK1, sequence (P49759 whole entry): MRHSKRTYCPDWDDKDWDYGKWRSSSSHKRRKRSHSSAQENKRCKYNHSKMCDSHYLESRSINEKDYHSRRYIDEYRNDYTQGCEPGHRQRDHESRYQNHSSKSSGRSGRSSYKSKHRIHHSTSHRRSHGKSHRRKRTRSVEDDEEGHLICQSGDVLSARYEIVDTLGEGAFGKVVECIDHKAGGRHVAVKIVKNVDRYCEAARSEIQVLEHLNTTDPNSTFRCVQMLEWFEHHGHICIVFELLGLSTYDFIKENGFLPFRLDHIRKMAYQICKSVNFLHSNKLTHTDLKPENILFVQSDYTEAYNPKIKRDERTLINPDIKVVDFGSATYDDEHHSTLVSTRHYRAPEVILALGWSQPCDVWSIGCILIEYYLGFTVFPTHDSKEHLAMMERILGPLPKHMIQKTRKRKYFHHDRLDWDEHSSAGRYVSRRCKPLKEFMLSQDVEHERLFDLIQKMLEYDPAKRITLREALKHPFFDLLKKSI

`Cc1ncc(CO)c(/C=N/Nc2ccc(C(F)(F)F)cn2)c1O`: the concentration for a half-maximal effect (EC50) was 5.4 µM (active) in assay [1]; 8.1 µM (active) in the assay “cells [2]”; 1.01 µM (active) in assay [3]; > 40 µM (inactive) at Beta-galactosidase; 907 nM (active) in assay [4]; > 350 µM (not active) in the assay “cells [6]”. Moreover, the concentration for half-maximal inhibition (IC50) is 28.7 µM (not active) in [5] and 7.34 µM (active) at Nonstructural protein 1. In addition, the figures for the concentration at half-maximal activity (AC50) (in the assay on INS1; in assay [7]) were 944 nM (active) and 5.06 µM (active), respectively.
As for `Cc1cc(OCC(=O)NCc2ccc(S(N)(=O)=O)cc2)c2c3c(c(=O)oc2c1)CCC3`, the EC50 in assay [8] and in assay [9] was > 99 µM (inactive) throughout.
For the compound `O=C(CCC(=O)OCC(=O)c1cccc([N+](=O)[O-])c1)Nc1cccc(Cl)c1Cl`, at Beta-galactosidase, the EC50 is > 40 µM (inactive). Besides, the IC50 in assay [5] is listed as 34.2 µM (not active).
`CCN1CCN(Cc2ccc(NC(=O)c3ccc(C)c(/C=C/c4cnc(Nc5cc(N6CCNCC6)nc(C)n5)cn4)c3)cc2C(F)(F)F)CC1`: the 50% effective concentration (EC50) is 0.424 µM (inconclusive) in assay [1]; 7.23 µM (active) in the assay on HEK293 [10]; 6.36 µM (active) in [11]; 86.5 µM (active) on Streptokinase A; > 150 µM (not active) in the assay with Streptococcus. In addition, the IC50 in the assay with HEK293 [12] is > 20 µM (inactive); with HEK293 [13] it was > 20 µM (inactive); at Bcl-2-related protein A1, > 20 µM (inactive); in [15], 9.4 µM (active); in assay [16], 11.1 µM (active); in assay [22], 5.88 µM (active). Also, the IC50 in assay [24] is 41 µM (active). Moreover, the CC50 in assay [14] is 6.89 µM (active); in assay [23], 21.6 µM (active). In addition, the AC50 in the assay on HEK293 [17] is 725 nM (active); in [18] it was 1.99 µM (active); in assay [7], 12.8 µM (active); in assay [19], 9.56 µM (active); in [20], 19.6 µM (active); in assay [21], 27.6 µM (active).

One may read the EC50 as the concentration needed to bring the measured effect to its halfway point. One may read the IC50 as the concentration that inhibits the measured activity by half. For orientation: AC50 means the midpoint of the concentration-response curve, whichever way the signal moves.
